The test system of data set [1] is HT-29 SF cells. Description: Reversal of DHEA effect on cell cycle (flow cytometry). It is filed as cell-based, human. The note with it: 25 μM DHEA, 48 hours. In general terms: Flow cytometry measures light scatter and fluorescence of single cells or particles in a stream.
Data set [2] concerns HT-29 SF cells. Description: Reversal of DHEA-mediated growth inhibition. The note with it: 25 μM DHEA, supplement in medium, 48 hours. The data set is classed as cell-based, human.
The nature of data set [3]: Solubility of DHEA-S. It is filed as physicochemical. The note with it: for Solubility: range of triplicates. The source says: Inhalation of pure water can produce a cough stimulus. […] The temperature effect is weaker at high NaCl concentrations.
Data set [4] has as its system HT-29 SF cells. Description: DHEA effect on cell cycle (flow cytometry). The data set is classed as cell-based, human. The procedure: Cells were plated at 10^5/60-mm dish in duplicate. […] Cultures were trypsinized following 0, 24, 48, or 74 hours and fixed and stained using a modification of a procedure of Bauer et al., Cancer Res. 46, 3173-3178 (1986). Briefly, cells were collected by centrifugation and resuspended in cold phosphate-buffered saline. Cells were fixed in 70% ethanol, washed, and resuspended in phosphate-buffered saline.
After 24, 48, and 72 hours, cells were harvested, fixed in ethanol, and stained with propidium iodide, and the DNA content/cell was determined by flow cytometric analysis. The percentage of cells in G1, S, and G2M phases was calculated using the Cellfit cell cycle analysis program. S phase is marked by a quadrangle for clarity. Representative histograms from duplicate determinations are shown. The experiment was repeated three times.

Data set [5] deals with HT-29 SF cells. Put plainly: DHEA effect on cell growth (Coulter counter). It is filed as cell-based, human. The note with it: 12.5-200 μM, 24-72 hours.
In data set [6] the test system is asthma. Conditions: 657 patients with asthma, cited from earlier work.
Data set [7] can be described thus: HPLC analysis of drug degradation during jet milling. The data set is classed as physicochemical. The note with it: HPLC peak area vs unmilled standard. As to the method: Two vials (A; single-pass; 150 mg) and (B double-pass; 600 mg) of the micronized drug were available for determining drug degradation during jet milling micronization. […] The chromatographic peak area for the HPLC assay of the unmilled drug standard solution (10 mg/ml) gave a value of 23,427. […] The chromatographic peak areas for vials A and B were 11,979 and 11,677, respectively.

Data set [8] is described as follows: Short-term solution stability of DHEA-S nebulizer formulation. The data set is classed as physicochemical. Conditions: for Appearance of solution on storage: 10 mg/mL in 0.12% NaCl. The procedure: Aliquots of this solution are filled into clear glass vials and stored at RT (24-26° C.) and at 40° C. The samples are checked daily for DHEA-S content, DHEA content, and appearance. For each time point, duplicate samples are withdrawn and diluted from each vial. […] The study is stopped on day three. […] The solution should easily be stable for the day of reconstitution in a clinical trial. The following section describes the aerosol properties of this formulation.

Data set [9] relates to adenosine. Put plainly: In vivo effect on adenosine levels in rat tissues (HPLC of tissue adenosine). The procedure:
Folinic acid (50 mg/kg) was administered intraperitoneally once daily for fourteen days. […] Hearts were removed from animals and flash frozen in liquid nitrogen with 10 s of death. Liver and lungs were removed en bloc and flash frozen with 30 s of death. Brain tissue was subsequently dissected.

Data set [10] can be described thus: Solid-state stability with and without lactose at 50° C. (HPLC, DHEA formation). It is filed as physicochemical. The text has this:
These conditions were used to stress the formulation in order to predict its long-term stability results. […] The primary degradant is DHEA. […] The materials on accelerated storage become more cohesive with time as evidenced by clumping during sample weighing for chemical analysis. […] This is a considerable disadvantage since lactose is the most commonly used inhalation excipient for dry powder formulations. Continuing with the virtually anhydrous form would mean limiting formulations to neat powder or undertaking more comprehensive safety studies to use a novel excipient.

A short description of data set [11]: Aerosolization of neat DHEA-S dihydrate, Acu-Breathe single-dose inhaler, fine particle fraction. The data set is classed as physicochemical. Conditions: neat powder, Acu-Breathe, 30 to 75 L/min, all flow rates. The source says:
The single-dose Acu-Breathe device is used for evaluating DHEA-S.dihydrate. […] These blisters are actuated into the Andersen 8-stage cascade impactor at flow rates ranging from 30 to 75 L/min with a glass twin-impinger throat. Stages 1-5 of the Andersen impactor are rinsed together to obtain an estimate of the fine particle fraction. Pooling the drug collected from multiple stages into one assay make the method much more sensitive. […] Using a carrier with a larger particle size typically improves the aerosol properties of micronized drug substances.

Data set [12] can be described thus: Physicochemical testing of DHEA-S dihydrate before and after micronization. Conditions: for Water (% w/w): Karl Fischer. The procedure: Surface area is determined using five point BET analyses are performed with nitrogen as the adsorbing gas (P/Po=0.05 to 0.30) using a Micromeritics TriStar surface area analyzer. Particle size distributions are measured by laser diffraction using a Micromeritics Saturn Digisizer where the particles are suspended in mineral oil with sodium dioctyl sodium sulfosuccinate as a dispersing agent. Drug substance water content is measured by Karl Fischer titration (Schott Titroline KF). Pure water is used as the standard and all relative standard deviations for triplicates are less than 1%. Powder is added directly to the titration media.

Setting [13] is: Folinic Acid 50 mg/kg intraperitoneally once daily 14 days, mean±SEM.

Read-outs that look alike come from different tables or passages of the source.

Results on nine molecules are retold here after patent US20090274676A1, “COMBINATION OF DEHYDROEPIANDROSTERONE OR DEHYDROEPIANDROSTERONE-SULFATE WITH A PDE-4 INHIBITOR FOR TREATMENT OF ASTHMA OR CHRONIC OBSTRUCTIVE PULMONARY DISEASE” (priority 2003, published 2009).

Regarding `C[C@@](O)(CCO)CC(=O)O` [MVA, mevalonic acid], the “Prevention of DHEA-induced S phase depletion” value in [1] was “partially prevented”. For the same molecule, in data set [2], the “Reversal of DHEA-induced growth inhibition” value was “partially overcome”.
For `CC(C)=CCC/C(C)=C/CC/C(C)=C/CC/C=C(\C)CC/C=C(\C)CCC=C(C)C` [SQ, squalene], the “Reversal of DHEA-induced growth inhibition” value in data set [2] is “no such effect”.
Regarding `C[C@]12CC[C@H](O)CC1=CC[C@@H]1[C@@H]2CC[C@]2(C)C(=O)CC[C@@H]12` [DHEA, 3β-hydroxyandrost-5-en-17-one], in [3] (water), the Solubility in water result was “insoluble in water”. The “Percentage of cells in G1 / S phase” value in [4] (200 μM, after 24 hours) is “more rapid increase in the percentage of cells in G1 and a decreased proportion of cells in S phase”. For the same molecule, the G2M phase cells entry in data set [4] (25 or 50 μM, after 48 hours) is given as “transient increase”. Further, the “Percentage of cells in G1 phase” value in [4] (25 or 50 μM, after 72 hours) is “increased”. In addition, in data set [4] (25 or 50 μM, after the initial 24 hours), the Cell cycle distribution result is “unchanged”. Also, the “Overall effect on cell cycle” value in data set [4] (time- and dose-dependent) is recorded as “G1 block”. For the same molecule, the “Effect on growth of HT-29 cells” value in [5] is “time- and dose-dependent inhibition of growth”.
For the molecule `O=C(Nc1c(Cl)cncc1Cl)c1ccc(OC(F)F)c(OCC2CC2)c1` [Roflumilast], the “Reduction of number of exacerbations compared to placebo” value in data set [6] (higher dose) is given as 48%; in [6] (lower dose) it was 8%.
Take `C[C@]12CC[C@H](OS(=O)(=O)[O-])CC1=CC[C@@H]1[C@@H]2CC[C@]2(C)C(=O)CC[C@@H]12.[Na+]` [DHEA-S, sodium dehydroepiandrostenone sulfate]: the Solubility (as a rule, the dissolved amount per volume that the medium holds) lay within 1.1 to 1.3 mg/mL in data set [3] (0.9% NaCl, refrigerated (7-8° C.)) and 16.5 to 17.4 mg/mL in data set [3] (~25° C., 0% NaCl). The molecule also yielded a Ksp in data set [3] (15° C., interpolated) of about 1316 mM^2. In addition, the Solubility in hexane result in [3] (hexane) is “insoluble”. Also, the “Equilibrium constant Ksp” value in data set [3] (refrigerated (7-8° C.)) came to 665 mM^2; in [3] (room temperature (24-25° C.)), 2236 mM^2. Moreover, in [7], the “Degradation of the drug during jet milling micronization” value is listed as “no detectable degradation”. Further, the “Stability of nebulizer formulation” value in [8] (7.5 mg/mL in 0.12% NaCl, RT) is reported as “stable for at least one day”. Also, the results for the “Appearance of solution on storage” value in data set [8] (40° C.) and in data set [8] (RT (24-26° C.)) were “became cloudy after two days of storage” and “slight precipitate is observed on the third day”, respectively.
With `C[C@]12CCC(=O)C=C1CC[C@@H]1[C@@H]2CC[C@@]2(C)[C@H]1CC[C@]2(C)O` [Methyltestosterone, methyltestosterone], the “Intracellular adenosine, Liver” value in data set [9] (Methyltestosterone 40 mg/kg, mean±SEM) amounted to 16.5 ± 0.9 nmols/mg protein; in data set [9] (Methyltestosterone 120 mg/kg, mean±SEM), 5.1 ± 0.5 nmols/mg protein.
Regarding `CC12CCC3C(CC=C4CC(OS(=O)(=O)[O-])CCC43C)C1CCC2=O.[Na+]` (stereo not drawn) [DHEA-S Dihydrate], the Colour after storage entry in data set [10] (1 week at 50° C.) was “no change in color”. Also, the DHEA % formed in [10] (50° C., 1 week) was determined as 0.216%; in data set [10] (50° C., 3 weeks), 0.317%; in data set [10] (50° C., 4 weeks), 0.374%; in data set [10] (Control, initial (Time=0)), 0.213%; in data set [10] (Control, sealed, 25° C., 4 weeks) it was 0.218%. For the same molecule, the “Water content, starting value” in data set [10] (before storage) turned out to be 8.8%. For the same molecule, in data set [10] (one week at 50° C.), the “Water content after accelerated storage” value was found to be 8.66%. Besides, in data set [11], the “Fine particle fraction compared with virtually anhydrous material” value is listed as “higher fine particle fraction”. Also, the “Particle size (D50%)” value in [12] (Bulk) came out at 31 microns; in data set [12] (Micronized) it was 3.7 microns. In addition, the entries for the “Water (% w/w)” value in data set [12] (Bulk) and in data set [12] (Micronized) were 8.5 % w/w and 8.4 % w/w, respectively. Moreover, in data set [12] (Micronized, five point BET), the “Surface area (m^2/g)” value was found to be 4.9 m^2/g.
With `Nc1nc(=O)c2c([nH]1)NCC(CNc1ccc(C(=O)N[C@@H](CCC(=O)O)C(=O)O)cc1)N2C=O` (mixture of isomers) [Folinic Acid, Folinic acid], in data set [9] (setting [13]), the “Intracellular adenosine, Brain” value stood at 0.72 ± 0.09 nmols/mg protein; the “Intracellular adenosine, Heart” value came to 12.4 ± 2.1 nmols/mg protein; the “Intracellular adenosine, Liver” value is on record as 16.4 ± 2.4 nmols/mg protein. Moreover, the “Effect on adenosine levels when administered alone” value in data set [9] (all organs studied) was “increase in adenosine levels”. In [9] (coadministered with DHEA or methyltestosterone), the “Effect of coadministration on steroid-mediated adenosine depletion” value is listed as “completely abrogated”.
As to `CC(C)CCC[C@@H](C)[C@H]1CC[C@H]2[C@@H]3CC=C4C[C@@H](O)CC[C@]4(C)[C@H]3CC[C@]12C` [CH, cholesterol], the “Prevention of DHEA-induced S phase depletion” value in [1] is “very little effect”. Further, in [2], the “Reversal of DHEA-induced growth inhibition” value is given as “no such effect”.
